# Measured values from the supplement of paper PMC11781733.
# Where a name gives a salt, the structure may show the parent alone.
# Columns and labels:
# Settings in all cases: exposure time: 15 min to 3 h acute
# Dugesia japonica [1] = test: loss of phototaxis incidence (% planarians (vehicle-normalised)); higher = higher incidence or increase relative to vehicle control
# Procedure: (§1)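 Adult asexual Dugesia japonica planarians (1 per well, 48-well plate, n=24 over technical triplicates) were exposed acutely (15 min to 3 h) to each compound (0.5% DMSO or water vehicle) and screened on a robotic platform for crawl-out, stickiness, body shape, phototaxis, noxious-heat scrunching and locomotion endpoints. Binary endpoints are incidence rate x100 normalised to in-plate vehicle controls. Continuous endpoints are the median response normalised to the plate vehicle median, as % change or difference. Negative incidences after vehicle subtraction were set to 0.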
# Dugesia japonica [2] = test: total locomotor bursts minus vehicle (bursts difference vs vehicle); higher = higher incidence or increase relative to vehicle control
# Procedure: as §1
# Dugesia japonica [3] = test: crawl-out incidence (% planarians); higher = higher incidence or increase relative to vehicle control
# Procedure: as §1, with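 “x100.” for “x100 normalised to in-plate vehicle controls.”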
# Dugesia japonica [4] = test: hyperkinesis incidence (% planarians (vehicle-normalised)); higher = higher incidence or increase relative to vehicle control
# Procedure: as §1
# Dugesia japonica [5] = test: speed in dark vs vehicle (% change vs vehicle); higher = higher incidence or increase relative to vehicle control
# Procedure: as §1
# Dugesia japonica [6] = test: speed first 30 s blue light vs vehicle (% change vs vehicle); higher = higher incidence or increase relative to vehicle control
# Procedure: as §1
# Dugesia japonica [7] = test: corkscrew incidence (% planarians (vehicle-normalised)); higher = higher incidence or increase relative to vehicle control
# Procedure: as §1
# Dugesia japonica [8] = test: loss of heat-induced scrunching incidence (% planarians (vehicle-normalised)); higher = higher incidence or increase relative to vehicle control
# Procedure: as §1
# Dugesia japonica [9] = test: stickiness incidence (% planarians (vehicle-normalised)); higher = higher incidence or increase relative to vehicle control
# Procedure: as §1
# Dugesia japonica [10] = test: speed second 30 s blue light vs vehicle (% change vs vehicle); higher = higher incidence or increase relative to vehicle control
# Procedure: as §1
# Dugesia japonica [11] = test: noxious heat displacement strength vs vehicle (% change vs vehicle); higher = higher incidence or increase relative to vehicle control
# Procedure: as §1
# Dugesia japonica [12] = test: pharynx extrusion incidence (% planarians (vehicle-normalised)); higher = higher incidence or increase relative to vehicle control
# Procedure: as §1
# Dugesia japonica [13] = test: resting fraction in blue light vs vehicle (difference in fraction x100 vs vehicle); higher = higher incidence or increase relative to vehicle control
# Procedure: as §1
# Dugesia japonica [14] = test: C-shape incidence (% planarians (vehicle-normalised)); higher = higher incidence or increase relative to vehicle control
# Procedure: as §1
# Dugesia japonica [15] = test: anxiety (time in outer well region) vs vehicle (% change vs vehicle); higher = higher incidence or increase relative to vehicle control
# Procedure: as §1
# Dugesia japonica [16] = test: contracted body shape incidence (% planarians (vehicle-normalised)); higher = higher incidence or increase relative to vehicle control
# Procedure: as §1
# Dugesia japonica [17] = test: resting fraction in dark vs vehicle (difference in fraction x100 vs vehicle); higher = higher incidence or increase relative to vehicle control
# Procedure: as §1
# Dugesia japonica [18] = test: any abnormal body shape incidence (% planarians (vehicle-normalised)); higher = higher incidence or increase relative to vehicle control
# Procedure: as §1
Structure (SMILES),loss of phototaxis incidence (Dugesia japonica [1]),total locomotor bursts minus vehicle (Dugesia japonica [2]),crawl-out incidence (Dugesia japonica [3]),hyperkinesis incidence (Dugesia japonica [4]),speed in dark (Dugesia japonica [5]),speed first 30 s blue light (Dugesia japonica [6]),corkscrew incidence (Dugesia japonica [7]),loss of heat-induced scrunching incidence (Dugesia japonica [8]),stickiness incidence (Dugesia japonica [9]),speed second 30 s blue light (Dugesia japonica [10]),noxious heat displacement strength (Dugesia japonica [11]),pharynx extrusion incidence (Dugesia japonica [12]),resting fraction in blue light (Dugesia japonica [13]),C-shape incidence (Dugesia japonica [14]),anxiety (Dugesia japonica [15]),contracted body shape incidence (Dugesia japonica [16]),resting fraction in dark (Dugesia japonica [17]),any abnormal body shape incidence (Dugesia japonica [18])
CN(C)CCC[C@@]1(c2ccc(F)cc2)OCc2cc(C#N)ccc21 [escitalopram] (1000 µM),8.7,37.8,4.17,56.5,-42.1,-68.2,26.1,60.9,30.4,-66.8,-59,0,18.9,0,19.7,4.35,17.6,69.6
CN1CC(=O)N=C1NC(=O)Nc1cccc(Cl)c1 [fenobam] (100 µM),≤ 0,2,0,0,-18.5,-26.8,0,8.33,≤ 0,-27,-43,0,0.38,0,-2.96,0,0,0
CN1CC(=O)N=C1NC(=O)Nc1cccc(Cl)c1 [fenobam] (178 µM),≤ 0,0.5,0,0,-3.57,-12.6,0,≤ 0,≤ 0,-18.9,-42.2,0,0,0,3.95,0,0.09,0
CN1CC(=O)N=C1NC(=O)Nc1cccc(Cl)c1 [fenobam] (316 µM),≤ 0,0,0,0,-12.6,-14.2,0,≤ 0,≤ 0,-16.9,-32.2,0,0.18,0,-0.1,0,0,0
CN1CC(=O)N=C1NC(=O)Nc1cccc(Cl)c1 [fenobam] (562 µM),≤ 0,2.75,0,0,-21.3,-24.4,0,≤ 0,≤ 0,-18.3,-39.8,0,1.05,0,-14.4,0,0.55,0
CNCCC(Oc1ccc(C(F)(F)F)cc1)c1ccccc1 (centres undefined) [fluoxetine hydrochloride] (3.16 µM),≤ 0,-7.5,0,0,-5.68,-11.9,0,16.7,≤ 0,-5.1,-9.15,0,-1.89,0,8.3,0,-6.73,0
CNCCC(Oc1ccc(C(F)(F)F)cc1)c1ccccc1 (centres undefined) [fluoxetine hydrochloride] (10 µM),≤ 0,1,4.17,0,-41.5,-37.3,0,8.7,≤ 0,-39.7,-40,0,-1.17,0,10.3,0,-0.39,0
CNCCC(Oc1ccc(C(F)(F)F)cc1)c1ccccc1 (centres undefined) [fluoxetine hydrochloride] (31.6 µM),16.7,9,0,0,-58.6,-70.9,0,8.33,≤ 0,-66.4,-49.6,0,6.49,0,10.3,0,10.3,0
